Data taken from article PMC5357154 (Cell chemical biology, 2017).

Experiments:
[1] = target: T1, caspase-1 (Homo sapiens, UniProt P29466); assay: Caspase catalytic activity IC50 determination, caspase-1; format: biochemical; details: 2.5 nM enzyme, 6.5 μM WEHD substrate, tested 26.1 nM to 66 μM
T1 sequence (P29466 120-297 limits assumed): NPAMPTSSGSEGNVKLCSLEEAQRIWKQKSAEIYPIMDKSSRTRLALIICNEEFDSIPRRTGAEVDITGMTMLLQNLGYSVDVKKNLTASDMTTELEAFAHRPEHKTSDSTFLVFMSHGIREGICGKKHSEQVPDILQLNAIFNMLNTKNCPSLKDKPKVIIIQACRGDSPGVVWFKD
T1 sequence (P29466 317-404 limits assumed): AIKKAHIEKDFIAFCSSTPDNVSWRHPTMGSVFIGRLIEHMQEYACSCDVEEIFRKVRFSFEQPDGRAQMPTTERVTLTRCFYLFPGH

[2] = target: T2, caspase-3 (Homo sapiens, UniProt P42574); assay: Caspase catalytic activity IC50 determination, caspase-3; format: biochemical; details: 200 nM enzyme, 3.3 μM DEVD substrate, tested 26.1 nM to 66 μM
T2 sequence (P42574 29-175 limits assumed): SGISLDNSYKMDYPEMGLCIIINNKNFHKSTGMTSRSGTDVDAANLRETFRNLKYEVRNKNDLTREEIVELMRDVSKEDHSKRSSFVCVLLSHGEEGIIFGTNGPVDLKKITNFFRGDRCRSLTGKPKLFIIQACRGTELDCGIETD
T2 sequence (P42574 176-277 limits assumed): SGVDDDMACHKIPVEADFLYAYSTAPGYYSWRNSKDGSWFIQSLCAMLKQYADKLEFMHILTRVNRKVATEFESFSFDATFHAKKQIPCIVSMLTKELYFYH

[3] = target: T3, caspase-4 (Homo sapiens, UniProt P49662); assay: Caspase catalytic activity IC50 determination, caspase-4; format: biochemical; details: 1 nM enzyme, 10 μM LEHD substrate, tested 26.1 nM to 66 μM
T3 sequence (P49662 81-270 limits assumed): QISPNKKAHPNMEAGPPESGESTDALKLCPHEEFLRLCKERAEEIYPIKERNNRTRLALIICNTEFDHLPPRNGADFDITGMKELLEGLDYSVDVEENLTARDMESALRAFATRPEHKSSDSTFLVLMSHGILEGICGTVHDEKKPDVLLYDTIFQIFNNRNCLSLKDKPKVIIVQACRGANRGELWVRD
T3 sequence (P49662 290-377 limits assumed): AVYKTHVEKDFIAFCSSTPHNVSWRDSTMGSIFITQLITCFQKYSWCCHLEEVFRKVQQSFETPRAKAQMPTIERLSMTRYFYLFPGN

[4] = target: T4, caspase-5 (Homo sapiens, UniProt P51878); assay: Caspase catalytic activity IC50 determination, caspase-5; format: biochemical; details: 20 nM enzyme, 10 μM LEHD substrate, tested 26.1 nM to 66 μM
T4 sequence (P51878 137-327 limits assumed): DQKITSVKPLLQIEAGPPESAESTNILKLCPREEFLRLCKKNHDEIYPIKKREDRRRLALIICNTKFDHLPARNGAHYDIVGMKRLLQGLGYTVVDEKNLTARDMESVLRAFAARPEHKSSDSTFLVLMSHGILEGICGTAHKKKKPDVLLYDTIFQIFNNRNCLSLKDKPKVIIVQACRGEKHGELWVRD
T4 sequence (P51878 347-434 limits assumed): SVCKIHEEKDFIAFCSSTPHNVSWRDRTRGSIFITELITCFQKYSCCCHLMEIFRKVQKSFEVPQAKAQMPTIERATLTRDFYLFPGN

[5] = target: T5, caspase-9 (Homo sapiens, UniProt P55211); assay: Caspase catalytic activity IC50 determination, caspase-9; format: biochemical; details: 200 nM enzyme, 6.5 μM LEHD substrate, tested 26.1 nM to 66 μM
T5 sequence (P55211 1-315 limits assumed): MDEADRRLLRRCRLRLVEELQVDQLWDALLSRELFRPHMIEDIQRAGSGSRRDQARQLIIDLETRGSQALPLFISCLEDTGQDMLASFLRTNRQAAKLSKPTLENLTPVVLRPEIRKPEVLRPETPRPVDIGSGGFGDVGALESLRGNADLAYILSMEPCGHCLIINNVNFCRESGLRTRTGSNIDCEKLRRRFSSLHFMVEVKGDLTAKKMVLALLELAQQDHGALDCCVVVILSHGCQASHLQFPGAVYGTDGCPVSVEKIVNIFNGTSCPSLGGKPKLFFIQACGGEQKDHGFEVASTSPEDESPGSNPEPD
T5 sequence (P55211 331-416 limits assumed): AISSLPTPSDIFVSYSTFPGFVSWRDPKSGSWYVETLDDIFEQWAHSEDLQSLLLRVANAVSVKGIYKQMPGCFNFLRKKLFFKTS

[6] = target: T2, caspase-3; assay: Caspase-3 tryptophan fluorescence quenching; format: binding
[7] = system: caspases in HeLa and THP-1 cells; assay: Caspase inhibition across cell culture assays; format: cell-based, human; details: NSAIDs up to 500 μM

Row | IC50 [1] | IC50 [2] | IC50 [3] | IC50 [4] | IC50 [5] | Kd [6] | Compound | caspase inhibitory capability, rank order across cellular assays [7]
1 | No activity | No activity | No activity | No activity | No activity | 1290 ± 10 µM | CC(=O)Oc1ccccc1C(=O)O [Aspirin] | ineffective
2 |  |  |  |  |  |  | O=C(O)CCC(=O)c1ccc(-c2ccccc2)cc1 [Fenbufen] | substantial inhibitory capabilities
3 | No activity |  |  |  |  |  | CC(C)Cc1ccc(C(C)C(=O)O)cc1 (stereo not shown) [Ibuprofen] | weak inhibitors
4 |  |  |  |  |  | 30 ± 2 µM | CC(C(=O)O)c1ccc(N2Cc3ccccc3C2=O)cc1 (stereo not shown) [Indoprofen] | substantial inhibitory capabilities
5 |  |  |  |  |  |  | COc1ccc2cc([C@H](C)C(=O)O)ccc2c1 [Naproxen] | weak inhibitors
